Test results taken from ChEMBL document CHEMBL1146482, “Natural products from endophytic microorganisms” (J Nat Prod, 2004).
Values after ≈ are worked out from the molar mass of the structure shown.

Tests used:
Bacillus anthracis = test: Antimicrobial activity against Bacillus anthracis; type: functional
Plasmodium falciparum = test: Antiplasmodial activity against Plasmodium falciparum; type: functional; details: read-out: LD50 (the source's name)
Thymocyte = test: Immunosuppressive activity in thymocytes by thymocyte proliferation assay; type: functional, cell-based
Lymphocyte = test: Immunosuppressive activity in lymphocytes by mixed lymphocyte reaction assay; type: functional, cell-based

Compound	MIC (Bacillus anthracis) [µg/mL]	LC50 (Plasmodium falciparum) [µg/mL]	IC50 (Thymocyte) [nM]	IC50 (Lymphocyte) [nM]
CS[C@H]1SC[C@H]2C(=O)N(C)[C@@H](C(C)C)C(=O)OC[C@@H](NC(=O)c3cnc4ccccc4n3)C(=O)N[C@@H](C)C(=O)N(C)[C@@H]1C(=O)N(C)[C@@H](C(C)C)C(=O)OC[C@@H](NC(=O)c1cnc3ccccc3n1)C(=O)N[C@@H](C)C(=O)N2C [ECHINOMYCIN]	1 (≈ 0.908 µM)	0.007 (≈ 0.00636 µM)	–	–
C=C1CC[C@H]2[C@]3(C)C[C@@H](C=C(C)C)O[C@H]3CC[C@]2(C)[C@@H]1Cc1c(O)c(C)c(C)oc1=O [SUBGLUTINOL A]	–	–	100	100
C=C1CC[C@H]2[C@]3(C)C[C@H](C=C(C)C)O[C@H]3CC[C@]2(C)[C@@H]1Cc1c(O)c(C)c(C)oc1=O [SUBGLUTINOL B]	–	–	100	100
